Results: the CheMixHub viscosity set
“And” between values parts separate entries of the source, which are not always exact repeats. Equal values may be shown once.

Test: xn = mol fraction of the nth substance listed

Brc1ccccc1 + O=[N+]([O-])c1ccccc1
viscosity [mPa·s], 101 kPa
Conditions	x2 = 0.117	x2 = 0.225	x2 = 0.345	x2 = 0.464	x2 = 0.554	x2 = 0.676	x2 = 0.79	x2 = 0.887
298.15 K	1.106	1.164	1.227	1.296	1.352	1.465	1.556	1.673
303.15 K	1.036	1.075	1.13	1.209	1.246	1.355	1.459	1.551
308.15 K	0.973	1.015	1.06	1.117	1.173	1.251	1.345	1.423

CC(=O)OCC(COC(C)=O)OC(C)=O + CCCCO
viscosity [mPa·s], 101.33 kPa
Conditions	x1 = 0.1	x1 = 0.2	x1 = 0.3	x1 = 0.4	x1 = 0.5	x1 = 0.6	x1 = 0.7	x1 = 0.8	x1 = 0.9
298 K	2.4	2.7	3.12	3.71	4.5	5.57	6.99	9.02	11.93
303 K	2.11	2.34	2.69	3.17	3.82	4.65	5.79	7.34	9.49
308 K	1.87	2.06	2.36	2.75	3.27	3.96	4.86	6.07	7.72
313 K	1.67	1.83	2.07	2.4	2.84	3.41	4.15	5.1	6.39

BrCCBr + ClCCCl
298.15 K, 101 kPa
Conditions	viscosity [mPa·s]
x2 = 0.175	1.421
x2 = 0.3753	1.216
x2 = 0.5066	1.117
x2 = 0.6547	1.006
x2 = 0.7793	0.9179
x2 = 0.8501	0.8648

NCC(=O)[O-].[Na+] + O
viscosity [mPa·s], 101 kPa
Conditions	x1 = 0.01	x1 = 0.0194	x1 = 0.0289	x1 = 0.0371	x1 = 0.048
298.15 K	1.124	1.41	1.747	2.15	2.82
308.15 K	0.904	1.106	1.369	1.662	2.13
323.15 K	0.677	0.818	0.993	1.183	1.479

Brc1ccccc1 + OCCOCCOCCO
viscosity [mPa·s], 101 kPa
Conditions	298.15 K	308.15 K
x2 = 0.0462	1.316	1.168
x2 = 0.1502	2.173	1.769
x2 = 0.2493	3.39	2.568
x2 = 0.3505	5.164	3.674
x2 = 0.4433	7.374	5.002
x2 = 0.4974	8.957	5.935
x2 = 0.5484	10.66	6.933
x2 = 0.6475	14.61	9.221
x2 = 0.7514	19.62	12.15
x2 = 0.8484	25.03	15.37
x2 = 0.937	30.42	18.72

N#C[S-].[NH4+] + CCOS(=O)(=O)[O-].CC[n+]1ccn(C)c1
viscosity [mPa·s], 101 kPa
Conditions	x1 = 0.0235	x1 = 0.1553	x1 = 0.3025	x1 = 0.4042	x1 = 0.5205	x1 = 0.565	x1 = 0.5997
298.15 K	103.1	150	209.3	231.1	223.9	215.9	208.9
303.15 K	81.26	118	163.3	178.7	173.4	172.5	168.2
308.15 K	65.16	94.31	129.6	140.9	135.3	133.9	133.7
313.15 K	53.09	76.57	104.6	112.9	107.5	106	105.4
318.15 K	43.86	63.03	85.57	91.83	86.87	85.31	84.57
323.15 K	36.68	52.56	70.9	75.56	71.22	69.75	68.92

Brc1ccccc1 + COCCO
303.15 K, 101.33 kPa
Conditions	viscosity [mPa·s]
x2 = 0.1188	0.997
x2 = 0.219	1.024
x2 = 0.3173	1.06
x2 = 0.4336	1.114
x2 = 0.4974	1.147
x2 = 0.5621	1.179
x2 = 0.7198	1.255
x2 = 0.8018	1.296
x2 = 0.9254	1.352

Brc1ccccc1 + Cc1ccccc1C
101 kPa
Conditions	viscosity [mPa·s]
293.15 K, x1 = 0.114	0.795
293.15 K, x1 = 0.2198	0.827
293.15 K, x1 = 0.3257	0.862
293.15 K, x1 = 0.4383	0.893
293.15 K, x1 = 0.542	0.931
293.15 K, x1 = 0.6615	0.962
293.15 K, x1 = 0.7764	1
293.15 K, x1 = 0.882	1.035
298.15 K, x1 = 0.1101	0.728
298.15 K, x1 = 0.2223	0.765
298.15 K, x1 = 0.3227	0.795
298.15 K, x1 = 0.4226	0.826
298.15 K, x1 = 0.5207	0.863
298.15 K, x1 = 0.6643	0.9
298.15 K, x1 = 0.772	0.938
298.15 K, x1 = 0.8925	0.969
303.15 K, x1 = 0.117	0.667
303.15 K, x1 = 0.2219	0.701
303.15 K, x1 = 0.3366	0.734
303.15 K, x1 = 0.4539	0.77
303.15 K, x1 = 0.5398	0.8
303.15 K, x1 = 0.6572	0.834
303.15 K, x1 = 0.7877	0.876
303.15 K, x1 = 0.9122	0.91

O=C[C@H](O)[C@@H](O)[C@H](O)CO + O
viscosity, 101 kPa
Conditions	x1 = 0.000546	x1 = 0.0009	x1 = 0.00124	x1 = 0.0031	x1 = 0.006	x1 = 0.0063	x1 = 0.013
293.15 K	–	–	–	1.053 mPa·s	1.118 mPa·s and 1.118 mPa·s (2×)	1.118 mPa·s	1.229 mPa·s and 1.229 mPa·s and 1.229 mPa·s
298.15 K	0.9164 mPa·s	0.9244 mPa·s	0.9306 mPa·s	–	0.9937 mPa·s and 0.9937 mPa·s and 0.9937 mPa·s	0.9937 mPa·s	–
303.15 K	–	–	–	0.8381 mPa·s	0.8889 mPa·s and 0.8889 mPa·s (2×)	0.8889 mPa·s	0.986 mPa·s and 0.986 mPa·s and 0.986 mPa·s
308.15 K	–	–	–	0.7529 mPa·s	0.7916 mPa·s and 0.7916 mPa·s and 0.7916 mPa·s	0.7916 mPa·s	0.8843 mPa·s and 0.8843 mPa·s (2×)
313.15 K	–	–	–	0.683 mPa·s	0.7163 mPa·s and 0.7163 mPa·s and 0.7163 mPa·s	0.7163 mPa·s	0.798 mPa·s and 0.798 mPa·s and 0.798 mPa·s
318.15 K	–	–	–	–	0.6565 mPa·s and 0.6565 mPa·s and 0.6565 mPa·s	0.6565 mPa·s	0.7216 mPa·s and 0.7216 mPa·s and 0.7216 mPa·s

COC(=O)CC(=O)OC + CC(C)=O
303.15 K, 101 kPa
Conditions	viscosity [mPa·s]
x1 = 0.0666	0.4127
x1 = 0.139	0.5371
x1 = 0.2164	0.6676
x1 = 0.3009	0.8036
x1 = 0.392	0.9488
x1 = 0.4919	1.094
x1 = 0.6008	1.258
x1 = 0.7208	1.429
x1 = 0.8531	1.614

C1COCCO1 + CCCCCC
101 kPa
Conditions	viscosity [mPa·s]
303.15 K, x1 = 0.111	0.297
303.15 K, x1 = 0.1961	0.317
303.15 K, x1 = 0.3001	0.348
303.15 K, x1 = 0.4033	0.389
303.15 K, x1 = 0.4962	0.436
303.15 K, x1 = 0.5966	0.498
303.15 K, x1 = 0.7169	0.601
303.15 K, x1 = 0.8008	0.7
303.15 K, x1 = 0.8988	0.854
308.15 K, x1 = 0.1153	0.301
308.15 K, x1 = 0.2223	0.338
308.15 K, x1 = 0.3421	0.388
308.15 K, x1 = 0.4004	0.415
308.15 K, x1 = 0.5204	0.481
308.15 K, x1 = 0.7211	0.644
308.15 K, x1 = 0.8214	0.75
308.15 K, x1 = 0.9211	0.879
313.15 K, x1 = 0.1153	0.287
313.15 K, x1 = 0.2223	0.321
313.15 K, x1 = 0.3421	0.367
313.15 K, x1 = 0.4004	0.391
313.15 K, x1 = 0.5204	0.454
313.15 K, x1 = 0.6232	0.521
313.15 K, x1 = 0.7211	0.603
313.15 K, x1 = 0.8214	0.704
313.15 K, x1 = 0.9211	0.824
318.15 K, x1 = 0.1153	0.275
318.15 K, x1 = 0.2223	0.307
318.15 K, x1 = 0.3421	0.349
318.15 K, x1 = 0.4004	0.373
318.15 K, x1 = 0.5204	0.431
318.15 K, x1 = 0.6232	0.494
318.15 K, x1 = 0.7211	0.568
318.15 K, x1 = 0.8214	0.659
318.15 K, x1 = 0.9211	0.769

COc1ccccc1O + c1ccccc1
303.15 K, 101 kPa
Conditions	viscosity [mPa·s]
x2 = 0.1	3.4
x2 = 0.2	2.49
x2 = 0.3	1.97
x2 = 0.4	1.57
x2 = 0.5	1.29
x2 = 0.6	1.04
x2 = 0.7	0.873
x2 = 0.8	0.742
x2 = 0.9	0.641

CCCC#N + CCCCO
viscosity [mPa·s], 101.33 kPa
Conditions	x2 = 0.1001	x2 = 0.1981	x2 = 0.2994	x2 = 0.3979	x2 = 0.4953	x2 = 0.5961	x2 = 0.6981	x2 = 0.7984	x2 = 0.8991
298.15 K	0.58	0.623	0.684	0.764	0.869	1.012	1.211	1.482	1.885
308.15 K	0.515	0.547	0.596	0.66	0.741	0.852	1.003	1.208	1.506
318.15 K	0.461	0.487	0.526	0.575	0.64	0.726	0.842	1.002	1.221

Brc1ccccc1 + CC(C)CO
viscosity [mPa·s], 101.33 kPa
Conditions	x1 = 0.1065	x1 = 0.1936	x1 = 0.2949	x1 = 0.4015	x1 = 0.5016	x1 = 0.6014	x1 = 0.7006	x1 = 0.7967	x1 = 0.8995
298.15 K	2.649	2.205	1.831	1.532	1.36	1.231	1.144	1.088	1.055
313.15 K	1.727	1.483	1.28	1.116	1.022	0.9534	0.9062	0.8769	0.8637

BrCCBr + CN1CCC[C@H]1c1cccnc1
viscosity [mPa·s], 101.33 kPa
Conditions	x2 = 0.121	x2 = 0.2341	x2 = 0.3736	x2 = 0.4915	x2 = 0.613	x2 = 0.7575	x2 = 0.8734
298.15 K	1.765	1.939	2.233	2.523	2.804	3.055	3.341
323.15 K	1.2	1.383	1.466	1.599	1.714	1.838	1.884
